Paper PMC5766630, “Non-estrogenic Xanthohumol Derivatives Mitigate Insulin Resistance and Cognitive Impairment in High-Fat Diet-induced Obese Mice” (Scientific Reports, 2018)

Key:
[1] = test system: C57BL/6J mice fed a high-fat diet; assay: 13-week HFD feeding study: body weight, food intake, liver weight, metabolic parameters; type: in vivo, mouse; details: 13 weeks; for Body weight gain / HOMA-IR / Fasting plasma glucose / Feed efficiency / Food intake / Liver weight / Plasma cholesterol / Plasma insulin / Plasma leptin / Plasma triglycerides: male C57BL/6J mice, HFD, mean ± SE; for Body weight gain: 30 mg/kg body weight/day in diet; for Body weight gain / Fasting plasma glucose / Feed efficiency / Food intake / Liver weight / Plasma cholesterol / Plasma insulin / Plasma leptin / Plasma triglycerides: n = 11–12; for HOMA-IR / Fasting plasma glucose / Feed efficiency / Food intake / Liver weight / Plasma cholesterol / Plasma insulin / Plasma leptin / Plasma triglycerides: 30 mg/kg/day in diet; for HOMA-IR: insulin (mU/L) × glucose (mmol/L)/22.5
Excerpt: Nine-week old male C57BL/6J mice, obtained from The Jackson Laboratory (Bar Harbor, ME, USA), were housed individually in plastic cages under a 12–12-hr light-dark cycle. They were assigned randomly to four groups consisting of 12 mice each. One group (control) was fed a HFD (Dyets Inc., Bethlehem, PA, USA) containing 60%, 20% and 20% total calories from fat, carbohydrate and protein, respectively, and the other three groups were fed the HFD containing XN, DXN, or TXN. The test compounds were dissolved in an isotropic mixture of oleic acid:propylene glycol:Tween 80, 0.9:1:1 by weight (OPT) before incorporation into the HFD. The control diet contained an identical amount of OPT. All diets were prepared in pellet form by Dyets, Inc. (Bethlehem, PA, USA). The mouse diets were formulated to deliver a dose of 30 mg test compound per kg body weight per day. Food intake was measured three times per week and body weights were recorded weekly. At the end of 13 weeks of feeding, the mice were euthanized and blood, liver and skeletal muscle were collected for analyses. All animal protocols were approved by Institutional Animal Care and Use Committee (IACUC) at Oregon State University. Animal experiments were carried out in accordance with the relevant guidelines and regulations.
Plasma triglycerides and total cholesterol were analyzed with commercially available kits (Fisher-Scientific, Pittsburgh, PA, USA). Plasma glucose was analyzed by a test kit obtained from Wako Diagnostics (Mountain View, CA, USA). Plasma insulin and leptin were analyzed by ELISA kits purchased from Alpco Diagnostics (Salem, NH, USA) and Crystal Chem (Downers Grove, IL, USA), respectively. Homeostasis Model Assessment of Insulin Resistance (HOMA-IR) was calculated as follows: fasting plasma insulin concentration (mU/L) × fasting plasma glucose level (mmol/L)/22.5[95]. Plasma levels of AST and ALT were measured using commercially-available kits (Bioo Scientific Corp., Austin, TX, USA) as indicators of in vivo liver toxicity.
Body weight, food intake, and metabolic measurements: data were analyzed using a one-way ANOVA in PROC GLM for single measures within animals (i.e., liver, plasma, and muscle metabolic measures) and a repeated-measures-in-time design ANOVA in PROC MIXED for repeated measures within animals (i.e., body weight, feed intake, and feed efficiency). The area-under-the-curve (AUC) for the glucose tolerance tests were calculated using the trapezoidal rule. Before statistical analysis, data were examined for variance homogeneity and normality. To achieve normality, liver, plasma, and muscle XN data and plasma insulin data were natural log-transformed. For statistical comparisons, the control group was compared with each XN metabolite group.

[2] = test system: C2C12 skeletal muscle myoblasts; assay: MTT cell viability assay, C2C12; type: cell-based, mouse; details: 1 h exposure, up to 50 μM
Protocol: For cell viability experiments using the MTT assay, mouse C2C12 skeletal muscle myoblasts (ATCC; Manassas, VA, USA) and the human hepatocyte cell line, HepG2 (ATCC; Manassas, VA, USA), were plated in 96-well plates at a density of 4,000 to 10,000 cells per well in 200 μL of DMEM medium supplemented with 10% FBS, 1% glutamine, 1 mM of sodium pyruvate, 100 units/mL penicillin, and 100 μg/mL streptomycin. After incubating 48 h, the medium was removed and the cells were treated with fresh solutions of various concentrations of XN, DXN or TXN in phenol red-free DMEM plus supplements. The final concentrations of XN, DXN, TXN were 1, 2, 5, 8, 10, 25, or 50 μM, in quadruplicate wells. The plates were then incubated for 1 h (for C2C12) or 24 h for HepG2. After removing the medium, the cells were incubated for 2 h with a 0.5 mg/mL solution of MTT in phenol red-free culture medium. After removing the medium and adding a solution of acidified isopropanol to each well, the absorbance of each well was measured at 570 nm by using a spectrometer (SpectraMax 190, Molecular Devices, Sunnyvale, CA, USA). Cell viability of compound-treated cells was calculated as % absorbance of vehicle-treated control cells (Supplementary Fig. S1a and S1b).

[3] = test system: progesterone receptor (PGR) expression in MCF-7 cells; assay: Progesterone receptor (PGR) gene expression in MCF-7 cells, real-time PCR; type: cell-based, human; details: 20 h; estradiol 1 and 10 nM; 8-PN, XN, DXN, TXN 0.2, 1 and 5 μM; vs 0.1% ethanol
Protocol: MCF-7 cells (American Type Culture Collection, Manassas, VA, USA) were cultured in DMEM (Corning Life Sciences, Tewksbury, MA, USA) supplemented with 10% fetal bovine serum (Corning Life Sciences) and 100 μg/ml penicillin/streptomycin (Invitrogen, Carlsbad, CA, USA). For estrogen-free experiments, cells were seeded in phenol-free DMEM (Gibco/Life Technologies, Grand Island, NY, USA) plus 10% charcoal-dextran-treated FBS (Corning Life Sciences) at 5 × 10^5 cells/well of a 6-well plate. […] Total RNA was isolated using TRIzol (Invitrogen) and converted into cDNA using iScript (Bio-Rad, Hercules, CA, USA). Real-time PCR was performed in triplicate on a CFX-96 (Bio-Rad) using primer-probe assays (IDT Technologies, Coralville, IA, USA) and SsoAdvanced Universal Probes Supermix (Bio-Rad) to quantify progesterone receptor (PGR) and GAPDH levels. The ratio of PGR to GAPDH was calculated as 2^−ΔCt PGR/2^−ΔCt GAPDH. Data were analyzed using a one-way ANOVA (p < 0.05 was considered statistically significant) and a post-hoc Tukey’s multiple comparison test. Induction of the progesterone receptor in MCF-7 cells is one of the indices of estrogenicity of flavonoids such as 8-PN[94].

Compound | Plasma leptin concentration, change compared with controls ([1]; HFD mice, 30 mg/kg/day) [%] | Body weight gain [1] [g] | HOMA-IR [1] | Fasting plasma glucose [1] [mg/dL] | Feed efficiency [1] | Food intake [1] [g/day] | Liver weight [1] [g] | Plasma cholesterol [1] [mg/dL] | Plasma insulin [1] [ng/mL] | Plasma leptin [1] [ng/mL] | Plasma triglycerides [1] [mg/dL] | C2C12 cell viability (MTT) [2] | induction of PGR expression [3] | HOMA-IR index as % of control mice ([1]; HFD mice, 30 mg/kg/day) | Liver weight, change compared with controls ([1]; HFD mice, 30 mg/kg/day) [%] | Plasma insulin, change compared with controls ([1]; HFD mice, 30 mg/kg/day) [%]
COc1cc(O)c(CC=C(C)C)c(O)c1C(=O)CCc1ccc(O)cc1 [DXN, α,β-Dihydroxanthohumol] | −26 | 15.1 ± 1.3 | 22.0 ± 5.2 | 150 ± 13.0 | 0.062 ± 0.006 g weight gain/g food intake | 2.66 ± 0.09 | 1.11 ± 0.07 | 167 ± 8.5 | 2.08 ± 0.69 | 8.48 ± 1.00 | 84.4 ± 4.9 | did not significantly affect cell viability | do not induce |  |  | 
COc1cc(O)c(CCC(C)C)c(O)c1C(=O)CCc1ccc(O)cc1 [TXN, tetrahydroxanthohumol] | −44 | 9.70 ± 1.4 | 4.10 ± 0.3 | 118 ± 7.2 | 0.042 ± 0.006 g weight gain/g food intake | 2.51 ± 0.09 | 0.93 ± 0.07 | 167 ± 8.9 | 0.49 ± 0.08 | 6.39 ± 1.04 | 79.3 ± 7.8 | did not significantly affect cell viability | do not induce | 13 % of control mice | −21 | −82
COc1cc(O)c(CC=C(C)C)c(O)c1C(=O)/C=C/c1ccc(O)cc1 [XN, 3′-[3,3-dimethylallyl]-2′,4′,4-trihydroxy-6′-methoxychalcone] |  | 16.1 ± 1.3 | 31.3 ± 1.7 | 169 ± 8.3 | 0.068 ± 0.006 g weight gain/g food intake | 2.59 ± 0.09 | 1.14 ± 0.07 | 196 ± 8.5 | 2.61 ± 0.65 | 10.6 ± 1.00 | 80.6 ± 4.2 | did not significantly affect cell viability | do not induce |  |  | 
